Legend:
[1] = molecular target: T1, EED (1-441)-His protein (Homo sapiens, UniProt O75530); experiment: EED-H3K27Me3 peptide competition binding assay by AlphaScreen; conditions: read-out: (a) IC50 EED Alphascreen binding Qualified
T1 construct: 30 nM EED (1-441)-His protein
Outline: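 Serially diluted compound (12 points, 3-fold) incubated 20 min with 30 nM EED(1-441)-His and 15 nM biotin-H3K27Me3(19-33) peptide in 25 mM HEPES pH 8, 0.02% Tween-20, 0.5% BSA. Ni-chelate acceptor/streptavidin donor beads (10 μg/mL each) added, 1 h rt dark; 615 nm emission normalized to controls, dose-response fit for IC50.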

[2] = molecular target: wild type PRC2 (wtPRC2) complex (Homo sapiens, UniProt O75530); experiment: EED LC-MS assay (SAH production by PRC2); format: biochemical; conditions: read-out: (b) IC50 EED LC-MS Qualified
Chain of wild type PRC2 (wtPRC2) complex (O75530 whole entry): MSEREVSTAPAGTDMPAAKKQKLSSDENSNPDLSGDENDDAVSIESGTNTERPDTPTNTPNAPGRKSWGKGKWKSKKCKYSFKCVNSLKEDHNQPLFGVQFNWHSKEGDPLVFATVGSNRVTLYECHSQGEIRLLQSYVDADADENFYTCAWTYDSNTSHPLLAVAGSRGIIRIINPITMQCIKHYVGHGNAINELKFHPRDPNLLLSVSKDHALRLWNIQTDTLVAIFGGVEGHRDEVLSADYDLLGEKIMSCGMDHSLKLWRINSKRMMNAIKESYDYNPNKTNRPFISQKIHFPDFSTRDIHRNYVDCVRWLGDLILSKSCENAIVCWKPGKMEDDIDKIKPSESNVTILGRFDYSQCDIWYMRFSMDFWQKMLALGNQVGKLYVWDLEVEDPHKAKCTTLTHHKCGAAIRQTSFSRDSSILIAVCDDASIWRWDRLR
Chain of wild type PRC2 (wtPRC2) complex (Q15910 whole entry partner): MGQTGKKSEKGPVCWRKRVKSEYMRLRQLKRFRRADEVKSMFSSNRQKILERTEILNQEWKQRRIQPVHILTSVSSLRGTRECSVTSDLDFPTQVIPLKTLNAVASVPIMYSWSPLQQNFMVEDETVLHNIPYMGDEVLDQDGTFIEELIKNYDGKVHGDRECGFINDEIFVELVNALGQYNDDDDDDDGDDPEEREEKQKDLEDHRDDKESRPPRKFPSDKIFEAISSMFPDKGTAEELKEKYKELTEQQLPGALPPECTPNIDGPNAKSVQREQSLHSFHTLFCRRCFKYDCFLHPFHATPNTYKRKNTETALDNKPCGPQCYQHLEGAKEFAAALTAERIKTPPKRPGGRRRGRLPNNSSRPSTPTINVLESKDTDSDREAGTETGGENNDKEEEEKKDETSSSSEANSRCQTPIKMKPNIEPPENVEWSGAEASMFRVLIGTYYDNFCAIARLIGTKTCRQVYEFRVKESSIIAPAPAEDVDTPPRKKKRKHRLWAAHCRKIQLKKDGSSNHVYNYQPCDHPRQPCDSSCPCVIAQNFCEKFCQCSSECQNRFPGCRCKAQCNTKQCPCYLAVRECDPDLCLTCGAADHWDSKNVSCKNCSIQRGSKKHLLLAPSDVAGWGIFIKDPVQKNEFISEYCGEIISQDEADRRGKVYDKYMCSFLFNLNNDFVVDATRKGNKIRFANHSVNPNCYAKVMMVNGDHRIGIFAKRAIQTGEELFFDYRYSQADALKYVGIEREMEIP
Chain of wild type PRC2 (wtPRC2) complex (Q15022 whole entry partner): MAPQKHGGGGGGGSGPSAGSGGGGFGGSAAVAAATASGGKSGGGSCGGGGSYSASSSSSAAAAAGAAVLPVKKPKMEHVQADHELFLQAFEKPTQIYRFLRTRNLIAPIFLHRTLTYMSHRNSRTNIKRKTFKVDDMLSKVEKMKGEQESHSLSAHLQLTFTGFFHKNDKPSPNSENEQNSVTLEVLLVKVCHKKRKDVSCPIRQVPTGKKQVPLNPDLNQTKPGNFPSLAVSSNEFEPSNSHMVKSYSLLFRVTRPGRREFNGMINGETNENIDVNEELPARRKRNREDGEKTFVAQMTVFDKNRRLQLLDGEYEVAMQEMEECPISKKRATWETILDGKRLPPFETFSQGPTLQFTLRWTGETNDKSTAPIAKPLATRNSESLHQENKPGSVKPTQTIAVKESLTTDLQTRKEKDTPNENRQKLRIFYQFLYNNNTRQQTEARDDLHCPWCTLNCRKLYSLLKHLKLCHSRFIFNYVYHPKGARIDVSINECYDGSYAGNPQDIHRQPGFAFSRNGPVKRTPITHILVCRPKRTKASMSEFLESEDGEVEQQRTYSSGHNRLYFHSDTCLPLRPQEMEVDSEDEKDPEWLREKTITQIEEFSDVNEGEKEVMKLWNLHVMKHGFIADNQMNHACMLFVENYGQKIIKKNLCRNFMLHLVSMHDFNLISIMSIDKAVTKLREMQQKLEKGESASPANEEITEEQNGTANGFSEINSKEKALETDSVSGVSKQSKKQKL
Chain of wild type PRC2 (wtPRC2) complex (Q09028 whole entry partner): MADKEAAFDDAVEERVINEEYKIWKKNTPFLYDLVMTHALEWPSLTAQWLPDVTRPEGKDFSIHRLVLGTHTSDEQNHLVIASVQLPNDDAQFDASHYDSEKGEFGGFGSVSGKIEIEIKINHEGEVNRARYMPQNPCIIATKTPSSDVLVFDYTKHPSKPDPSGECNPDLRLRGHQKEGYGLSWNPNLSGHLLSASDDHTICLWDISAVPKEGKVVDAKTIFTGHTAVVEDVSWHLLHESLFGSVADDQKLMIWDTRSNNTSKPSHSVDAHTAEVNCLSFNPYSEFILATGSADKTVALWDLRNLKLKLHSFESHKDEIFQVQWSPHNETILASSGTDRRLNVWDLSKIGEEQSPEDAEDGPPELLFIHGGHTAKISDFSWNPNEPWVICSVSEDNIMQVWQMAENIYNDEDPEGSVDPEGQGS
Chain of wild type PRC2 (wtPRC2) complex (Q6ZN18 whole entry partner): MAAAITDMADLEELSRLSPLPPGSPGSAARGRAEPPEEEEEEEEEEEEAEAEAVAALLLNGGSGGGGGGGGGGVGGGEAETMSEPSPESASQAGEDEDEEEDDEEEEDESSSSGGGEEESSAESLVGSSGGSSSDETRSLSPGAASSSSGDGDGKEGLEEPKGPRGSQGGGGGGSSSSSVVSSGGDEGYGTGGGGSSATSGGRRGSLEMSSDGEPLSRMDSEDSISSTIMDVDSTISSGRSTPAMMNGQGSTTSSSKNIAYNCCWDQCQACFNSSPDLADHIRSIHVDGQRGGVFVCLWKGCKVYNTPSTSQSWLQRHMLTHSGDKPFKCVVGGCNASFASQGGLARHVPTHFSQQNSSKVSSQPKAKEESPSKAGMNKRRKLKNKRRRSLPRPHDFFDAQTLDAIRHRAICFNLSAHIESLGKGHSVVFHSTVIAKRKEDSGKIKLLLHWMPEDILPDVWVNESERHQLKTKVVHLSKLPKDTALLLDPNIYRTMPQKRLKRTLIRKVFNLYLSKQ
Outline: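 Pentameric PRC2 (EZH2, SUZ12, EED, Rbap48, AEBP), 12 nM final, preincubated 20 min with compound and SAM, then 1.5 μM biotinylated H3K27me0 peptide, 1 μM SAM, pH 8.0, 120 min at rt. SAH quantified by LC-MS/MS with d4-SAH; control-normalized activity fitted for IC50.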

[3] = tested on: H3K27 methylation in G401 cell; experiment: ELISA (H3K27 methylation) assay in G401 cells; format: cell-based, human; conditions: Homo sapiens, G-401, read-out: (c) IC50 ELISA Qualified
Outline: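 G401 cells treated 48 h with 3-fold dilutions (8 or 12 points, top 20 μM). Acid-extracted histones probed by ELISA for H3K27me3 or H3K27me2 with ECL readout, normalized to total H3. Percent inhibition versus DMSO fitted to dose-response curve for IC50.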

T1 sequence (O75530 whole entry): as the sequence (O75530 whole entry) above

IC50 [1] [nM] | IC50 [2] [nM] | IC50 [3] [nM] | SMILES
25.6 | 144 | 38.9 | COc1cccc(F)c1CNc1ccc(-n2cccn2)c2nncn12 [Example 357, N-(2-fluoro-6-methoxybenzyl)-8-(1H-pyrazol-1-yl)-[1,2,4]triazolo[4,3-a]pyridin-5-amine]
17.1 | 286 | 19.5 | COc1cccc(F)c1CNc1ccc(-n2cncn2)c2nncn12 [Example 358, N-(2-fluoro-6-methoxybenzyl)-8-(1H-1,2,4-triazol-1-yl)-[1,2,4]triazolo[4,3-a] pyridin-5-amine]
42.9 | 274 | 55.1 | COc1cccc(F)c1CNc1ccc(-n2ccc(C)n2)c2nncn12 [Example 359, N-(2-fluoro-6-methoxybenzyl)-8-(3-methyl-1H-pyrazol-1-yl)-[1,2,4]triazolo [4,3-a]pyridin-5-amine]
15.1 | 69.6 | 21.1 | COc1cccc(F)c1CNc1ccc(-n2ccnn2)c2nncn12 [Example 361, N-(2-fluoro-6-methoxybenzyl)-8-(1H-1,2,3-triazol-1-yl)-[1,2,4]triazolo[4,3-a] pyridin-5-amine]
39.8 | 33.4 | 17 | COc1cccc(F)c1CNc1ccc(-n2ccnc2C)c2nncn12 [Example 362, N-(2-fluoro-6-methoxybenzyl)-8-(2-methyl-1H-imidazol-1-yl)-[1,2,4]triazolo [4,3-a]pyridin-5-amine]
25 | 55.4 | 19.3 | COc1cccc(F)c1CNc1ccc(-n2ccnc2)c2nncn12 [Example 363, N-(2-fluoro-6-methoxybenzyl)-8-(1H-imidazol-1-yl)-[1,2,4]triazolo[4,3-a] pyridin-5-amine]
13.3 | 45.5 | 3.4 | COc1cccc(F)c1CNc1ccc(-c2cnc(C)n2C)c2nncn12 [Example 366, 8-(1,2-dimethyl-1H-imidazol-5-yl)-N-(2-fluoro-6-methoxybenzyl)-[1,2,4]triazolo[4,3-a]pyridin-5-amine]
23.5 | 113 | 29.1 | COc1cccc(F)c1CNc1ccc(-n2cc(C)c(C)n2)c2nncn12 [Example 367, 8-(3,4-dimethyl-1H-pyrazol-1-yl)-N-(2-fluoro-6-methoxybenzyl)-[1,2,4]triazolo[4,3-a] pyridin-5-amine]
11.7 | 70.9 | 6.5 | COc1cccc(F)c1CNc1ccc(-c2ccc(NC(=O)N(C)C)nc2C)c2nncn12 [Example 368, 3-(5-(5-((2-fluoro-6-methoxybenzyl)amino)-[1,2,4]triazolo[4,3-a]pyridin-8-yl)-6-methylpyridin-2-yl)-1,1-dimethylurea]
5.2 | 205 | 2.9 | COc1cccc(F)c1CNc1ccc(-c2ccc(C(C)(C)C#N)nc2C)c2nncn12 [Example 369, 2-(5-(5-((2-fluoro-6-methoxybenzyl)amino)-[1,2,4]triazolo[4,3-a]pyridin-8-yl)-6-methylpyridin-2-yl)-2-methylpropanenitrile]
25.8 | 108 | 20 | COc1cccc(F)c1CNc1ccc(-c2c(C)cnn2C)c2nncn12 [Example 370, 8-(1,4-dimethyl-1H-pyrazol-5-yl)-N-(2-fluoro-6-methoxybenzyl)-[1,2,4]triazolo[4,3-a] pyridin-5-amine]
21.1 | 118 | 33.8 | COc1cccc(F)c1CNc1ccc(-c2cnc(C)nc2OC)c2nncn12 [Example 372, N-(2-fluoro-6-methoxybenzyl)-8-(4-methoxy-2-methylpyrimidin-5-yl)-[1,2,4]triazolo[4,3-a]pyridin-5-amine]
48.7 | 494 | 64.1 | COc1cc(F)cc(F)c1CNc1ccc(-c2cnc(C)nc2OC)c2nncn12 [Example 373, N-(2,4-difluoro-6-methoxybenzyl)-8-(4-methoxy-2-methylpyrimidin-5-yl)-[1,2,4] triazolo[4,3-a]pyridin-5-amine]
58.3 | 144 | 46.7 | COc1ncccc1CNc1ccc(-c2ccc(CN(C)C)cc2)c2nncn12 [Example 374, 8-(4-((dimethylamino)methyl)phenyl)-N-((2-methoxypyridin-3-yl)methyl)-[1,2,4]triazolo[4,3-a] pyridin-5-amine]
